Patent US11306101B2 (Celgene Corporation, priority 2019, dated 2022)

Biological target: T1, CK1α (Homo sapiens, UniProt P48729+Q96SW2)
T1 construct: expressed in transfected cells
Assay: CK1α ePL degradation assay in MDS-L cells
Format: cell-based
Conditions: MDS-L cells expressing ePL-tagged CK1α; for DC50: concentration giving 50% CK1α degradation vs DMSO control; for Y: lowest measured CK1α level normalized to DMSO control
Experimental: The following is an example of an assay that can be used to determine the CK1α degradation activity of Isoindolinone Carboxamide Compounds in a cell line, for example, the MDS-L cell line.
Compounds were dispensed by an acoustic dispenser (ATS acoustic transfer system from EDC Biosystems) into a 384-well in a 10 point dose-response curve using 3-fold dilutions starting at 10 μM and going down to 0.0005 μM in DMSO. […] Assay plates were incubated at 37° C. with 5% CO2 for the indicated times. At the different time points, 25 μL of the InCELL Hunter™ Detection Reagent Working Solution (catalog number 96-0002, DiscoverX, Fremont, Calif.) was added to each well and incubated at RT for 30 min protected from light. After 30 min, luminescence was read on a PHERAstar luminometer (BMG LABTECH, Cary, N.C.).
CK1α levels in compound-treated wells were normalized to that of DMSO control and expressed as percent of control (PoC) (y).
The lowest measured CK1α level normalized to DMSO control in response to compound treatment, termed Y value, was used to characterize the compound-mediated CK1α degradation efficiency.

T1 sequence (P48729 whole entry): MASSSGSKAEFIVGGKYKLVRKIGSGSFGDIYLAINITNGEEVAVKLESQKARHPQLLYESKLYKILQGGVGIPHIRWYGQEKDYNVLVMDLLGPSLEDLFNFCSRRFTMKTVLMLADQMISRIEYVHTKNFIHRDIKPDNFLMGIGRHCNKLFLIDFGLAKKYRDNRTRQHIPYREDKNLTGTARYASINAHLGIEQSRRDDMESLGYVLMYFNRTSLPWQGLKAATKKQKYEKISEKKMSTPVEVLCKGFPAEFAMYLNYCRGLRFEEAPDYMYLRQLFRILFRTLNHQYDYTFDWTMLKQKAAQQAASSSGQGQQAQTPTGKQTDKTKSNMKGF
T1 sequence (Q96SW2 whole entry): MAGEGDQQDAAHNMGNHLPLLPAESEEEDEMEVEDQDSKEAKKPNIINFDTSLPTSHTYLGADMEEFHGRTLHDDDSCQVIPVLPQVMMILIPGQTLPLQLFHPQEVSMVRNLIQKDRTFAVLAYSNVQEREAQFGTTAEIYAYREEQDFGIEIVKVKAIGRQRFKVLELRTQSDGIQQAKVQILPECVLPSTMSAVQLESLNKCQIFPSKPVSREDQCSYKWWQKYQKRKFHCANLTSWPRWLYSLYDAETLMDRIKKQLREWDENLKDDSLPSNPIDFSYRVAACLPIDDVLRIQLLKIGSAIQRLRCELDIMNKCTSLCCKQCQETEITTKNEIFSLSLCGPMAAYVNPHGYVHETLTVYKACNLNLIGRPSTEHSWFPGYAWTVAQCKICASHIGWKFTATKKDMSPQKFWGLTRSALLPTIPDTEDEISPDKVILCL
T1 sequence (Q16531 whole entry partner): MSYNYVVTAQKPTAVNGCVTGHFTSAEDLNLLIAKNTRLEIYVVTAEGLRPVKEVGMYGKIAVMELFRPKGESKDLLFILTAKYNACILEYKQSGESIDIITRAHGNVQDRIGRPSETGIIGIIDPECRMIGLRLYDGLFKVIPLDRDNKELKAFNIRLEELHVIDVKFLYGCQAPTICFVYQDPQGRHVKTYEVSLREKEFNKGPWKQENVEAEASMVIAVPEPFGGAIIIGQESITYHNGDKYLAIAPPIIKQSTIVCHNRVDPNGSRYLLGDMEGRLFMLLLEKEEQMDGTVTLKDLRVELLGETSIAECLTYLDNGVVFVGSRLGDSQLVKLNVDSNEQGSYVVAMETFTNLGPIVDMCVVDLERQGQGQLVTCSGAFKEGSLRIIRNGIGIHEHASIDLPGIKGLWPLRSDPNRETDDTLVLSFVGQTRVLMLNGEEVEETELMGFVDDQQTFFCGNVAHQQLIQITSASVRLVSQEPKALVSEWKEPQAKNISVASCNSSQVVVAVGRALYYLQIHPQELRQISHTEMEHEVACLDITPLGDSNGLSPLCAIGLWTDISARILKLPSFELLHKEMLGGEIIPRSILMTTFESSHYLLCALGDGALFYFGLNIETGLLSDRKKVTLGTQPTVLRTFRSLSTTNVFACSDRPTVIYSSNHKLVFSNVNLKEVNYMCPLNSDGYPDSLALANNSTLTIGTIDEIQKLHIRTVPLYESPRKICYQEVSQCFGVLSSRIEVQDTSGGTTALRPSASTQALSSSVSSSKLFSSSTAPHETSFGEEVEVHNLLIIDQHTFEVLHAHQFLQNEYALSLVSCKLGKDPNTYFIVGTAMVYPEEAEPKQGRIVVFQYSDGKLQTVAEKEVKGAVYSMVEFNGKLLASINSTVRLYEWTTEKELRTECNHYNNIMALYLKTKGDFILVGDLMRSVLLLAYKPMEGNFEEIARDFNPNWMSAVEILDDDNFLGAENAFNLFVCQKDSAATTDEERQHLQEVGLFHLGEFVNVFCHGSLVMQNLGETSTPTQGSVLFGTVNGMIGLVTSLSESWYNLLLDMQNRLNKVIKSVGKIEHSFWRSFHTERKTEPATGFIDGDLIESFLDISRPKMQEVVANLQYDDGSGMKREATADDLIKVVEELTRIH

| Structure (SMILES) | DC50 [nM] | Y |
| --- | --- | --- |
| O=C1CCC(N2Cc3c(ccc(C(=O)N[C@H](c4ncc(F)cc4Cl)C(F)(F)F)c3F)C2=O)C(=O)N1 (stereo partly drawn) [Example 183, N-((R)-1-(3-chloro-5-fluoropyridin-2-yl)-2,2,2-trifluoroethyl)-2-(2,6-dioxopiperidin-3-yl)-4-fluoro-1-oxoisoindoline-5-carboxamide] | < 100 | * (a Y value (shown as *) of 0<Y≤20%) |
| COc1cccc([C@@H](NC(=O)c2ccc3c(c2)CN(C2CCC(=O)NC2=O)C3=O)C(F)(F)F)c1 (some centres unmarked) [Example 33] | < 100 | * (a Y value (shown as *) of 0<Y≤20%) |
| O=C1CCC(N2Cc3cc(C(=O)N[C@H](c4ccc(F)cc4OC(F)(F)F)C(F)(F)F)ccc3C2=O)C(=O)N1 (stereo partly drawn) [Example 86, 2-(2,6-dioxopiperidin-3-yl)-1-oxo-N-((R)-2,2,2-trifluoro-1-(4-fluoro-2-(trifluoromethoxy)phenyl)ethyl)isoindoline-5-carboxamide] | < 100 | * (a Y value (shown as *) of 0<Y≤20%) |
| Cc1cccnc1[C@@H](NC(=O)c1ccc2c(c1)CN(C1CCC(=O)NC1=O)C2=O)C(F)(F)F (stereo partly drawn) [Example 199, 2-(2,6-dioxopiperidin-3-yl)-1-oxo-N-((R)-2,2,2-trifluoro-1-(3-methylpyridin-2-yl)ethyl)isoindoline-5-carboxamide] | < 100 | * (a Y value (shown as *) of 0<Y≤20%) |
| O=C1CCC(N2Cc3cc(C(=O)N[C@H](c4cncnc4)C(F)(F)F)ccc3C2=O)C(=O)N1 (stereo partly drawn) [Example 66, 2-(2,6-dioxopiperidin-3-yl)-1-oxo-N-((R)-2,2,2-trifluoro-1-(pyrimidin-5-yl)ethyl)isoindoline-5-carboxamide] | 500 to 1000 | ** (a Y value (shown as**) of 20%<Y≤35%) |
| O=C1CCC(N2Cc3cc(C(=O)N[C@H](CC(F)(F)F)c4cccc(F)c4)ccc3C2=O)C(=O)N1 (stereo partly drawn) [Example 190, 2-(2,6-dioxopiperidin-3-yl)-1-oxo-N-((R)-3,3,3-trifluoro-1-(3-fluorophenyl)propyl)isoindoline-5-carboxamide] | < 100 | ** (a Y value (shown as**) of 20%<Y≤35%) |
| O=C1CC[C@@H](N2Cc3cc(C(=O)N[C@H](c4ncccc4Cl)C(F)(F)F)ccc3C2=O)C(=O)N1 [Example 182, N-((R)-1-(3-chloropyridin-2-yl)-2,2,2-trifluoroethyl)-2-((R)-2,6-dioxopiperidin-3-yl)-1-oxoisoindoline-5-carboxamide] | < 100 | * (a Y value (shown as *) of 0<Y≤20%) |
| O=C1CCC(N2Cc3cc(C(=O)N[C@H](CC(F)(F)F)c4ccc(F)cc4)ccc3C2=O)C(=O)N1 (stereo partly drawn) [Example 191, 2-(2,6-dioxopiperidin-3-yl)-1-oxo-N-((R)-3,3,3-trifluoro-1-(4-fluorophenyl)propyl)isoindoline-5-carboxamide] | 100 to 500 | ** (a Y value (shown as**) of 20%<Y≤35%) |
| Cn1nccc1[C@@H](NC(=O)c1ccc2c(c1)CN(C1CCC(=O)NC1=O)C2=O)C(F)(F)F (stereo partly drawn) [Example 69, 2-(2,6-dioxopiperidin-3-yl)-1-oxo-N-((R)-2,2,2-trifluoro-1-(1-methyl-1H-pyrazol-5-yl)ethyl)isoindoline-5-carboxamide] | 500 to 1000 | ** (a Y value (shown as**) of 20%<Y≤35%) |
| CN1CCC([C@@H](NC(=O)c2ccc3c(c2)CN(C2CCC(=O)NC2=O)C3=O)C(F)(F)F)CC1 (stereo partly drawn) [Example 81, 2-(2,6-dioxopiperidin-3-yl)-1-oxo-N-((R)-2,2,2-trifluoro-1-(1-methylpiperidin-4-yl)ethyl)isoindoline-5-carboxamide] | 500 to 1000 | ** (a Y value (shown as**) of 20%<Y≤35%) |
| CC1([C@@H](NC(=O)c2ccc3c(c2)CN(C2CCC(=O)NC2=O)C3=O)C(F)(F)F)CCC1 (stereo partly drawn) [Example 74, 2-(2,6-dioxopiperidin-3-yl)-1-oxo-N-((R)-2,2,2-trifluoro-1-(1-methylcyclobutyl)ethyl)isoindoline-5-carboxamide] | < 100 | * (a Y value (shown as *) of 0<Y≤20%) |

Other lines, results leading:

| DC50 [nM] | Y | Structure (SMILES) |
| --- | --- | --- |
| < 100 | ** (a Y value (shown as**) of 20%<Y≤35%) | Cc1cccc([C@@H](NC(=O)c2ccc3c(c2F)CN(C2CCC(=O)NC2=O)C3=O)C(F)(F)F)c1 (stereo partly drawn) [Example 134, 2-(2,6-dioxopiperidin-3-yl)-4-fluoro-1-oxo-N-((R)-2,2,2-trifluoro-1-m-tolylethyl)isoindoline-5-carboxamide] |
| 100 to 500 | ** (a Y value (shown as**) of 20%<Y≤35%) | CN(C)Cc1cccc([C@@H](NC(=O)c2ccc3c(c2)CN(C2CCC(=O)NC2=O)C3=O)C(F)(F)F)c1 (stereo partly drawn) [Example 150, N-((R)-1-(3-((dimethylamino)methyl)phenyl)-2,2,2-trifluoroethyl)-2-(2,6-dioxopiperidin-3-yl)-1-oxoisoindoline-5-carboxamide] |
| < 100 | * (a Y value (shown as *) of 0<Y≤20%) | C[C@H](NC(=O)c1ccc2c(c1)CN(C1CCC(=O)NC1=O)C2=O)c1ccc(F)cc1F (stereo partly drawn) [Example 51, N-((S)-1-(2,4-difluorophenyl)ethyl)-2-(2,6-dioxopiperidin-3-yl)-1-oxoisoindoline-5-carboxamide] |
| 100 to 500 | ** (a Y value (shown as**) of 20%<Y≤35%) | O=C1CCC(N2Cc3c(ccc(C(=O)N[C@H](c4ncccc4F)C(F)(F)F)c3F)C2=O)C(=O)N1 (stereo partly drawn) [Example 117, 2-(2,6-dioxopiperidin-3-yl)-4-fluoro-1-oxo-N-((R)-2,2,2-trifluoro-1-(3-fluoropyridin-2-yl)ethyl)isoindoline-5-carboxamide] |
| 100 to 500 | * (a Y value (shown as *) of 0<Y≤20%) | C[C@]1(O)CC[C@H]([C@@H](NC(=O)c2ccc3c(c2)CN(C2CCC(=O)NC2=O)C3=O)C(F)(F)F)CC1 (stereo partly drawn) [Example 156, 2-(2,6-dioxopiperidin-3-yl)-1-oxo-N-((R)-2,2,2-trifluoro-1-((1r,4R)-4-hydroxy-4-methylcyclohexyl)ethyl)isoindoline-5-carboxamide] |
| < 100 | * (a Y value (shown as *) of 0<Y≤20%) | O=C1CCC(N2Cc3cc(C(=O)N[C@H](c4ncccc4F)C(F)(F)F)ccc3C2=O)C(=O)N1 (stereo partly drawn) [Example 110, 2-(2,6-dioxopiperidin-3-yl)-1-oxo-N-((R)-2,2,2-trifluoro-1-(3-fluoropyridin-2-yl)ethyl)isoindoline-5-carboxamide] |
| 100 to 500 | ** (a Y value (shown as**) of 20%<Y≤35%) | O=C1CCC(N2Cc3cc(C(=O)N[C@H](c4ccccn4)C(F)(F)F)ccc3C2=O)C(=O)N1 (stereo partly drawn) [Example 48, 2-(2,6-dioxopiperidin-3-yl)-1-oxo-N-((R)-2,2,2-trifluoro-1-(pyridin-2-yl)ethyl)isoindoline-5-carboxamide] |
| 100 to 500 | ** (a Y value (shown as**) of 20%<Y≤35%) | O=C1CCC(N2Cc3cc(C(=O)N[C@H](c4cnccn4)C(F)(F)F)ccc3C2=O)C(=O)N1 (stereo partly drawn) [Example 82, 2-(2,6-dioxopiperidin-3-yl)-1-oxo-N-((R)-2,2,2-trifluoro-1-(pyrazin-2-yl)ethyl)isoindoline-5-carboxamide] |
| < 100 | * (a Y value (shown as *) of 0<Y≤20%) | CC(C)[C@H](NC(=O)c1ccc2c(c1)CN(C1CCC(=O)NC1=O)C2=O)c1ccccc1F (stereo partly drawn) [Example 167, 2-(2,6-dioxopiperidin-3-yl)-N-((S)-1-(2-fluorophenyl)-2-methylpropyl)-1-oxoisoindoline-5-carboxamide] |
| < 100 | * (a Y value (shown as *) of 0<Y≤20%) | O=C1CCC(N2Cc3cc(C(=O)N[C@H](c4cccc(F)c4Cl)C(F)(F)F)ccc3C2=O)C(=O)N1 (stereo partly drawn) [Example 152, N-((R)-1-(2-chloro-3-fluorophenyl)-2,2,2-trifluoroethyl)-2-(2,6-dioxopiperidin-3-yl)-1-oxoisoindoline-5-carboxamide] |
| 100 to 500 | ** (a Y value (shown as**) of 20%<Y≤35%) | O=C1CCC(N2Cc3c(ccc(C(=O)N[C@H](c4ccc(F)c(F)c4)C(F)(F)F)c3F)C2=O)C(=O)N1 (stereo partly drawn) [Example 113, N-((R)-1-(3,4-difluorophenyl)-2,2,2-trifluoroethyl)-2-(2,6-dioxopiperidin-3-yl)-4-fluoro-1-oxoisoindoline-5-carboxamide] |
| < 100 | * (a Y value (shown as *) of 0<Y≤20%) | O=C1CCC(N2Cc3cc(C(=O)N[C@H](c4cccc(OC5CC5)c4)C(F)(F)F)ccc3C2=O)C(=O)N1 (stereo partly drawn) [Example 122, N-((R)-1-(3-cyclopropoxyphenyl)-2,2,2-trifluoroethyl)-2-(2,6-dioxopiperidin-3-yl)-1-oxoisoindoline-5-carboxamide] |
| < 100 | * (a Y value (shown as *) of 0<Y≤20%) | O=C1CCC(N2Cc3c(ccc(C(=O)N[C@H](C4CCCCC4)C(F)(F)F)c3F)C2=O)C(=O)N1 (stereo partly drawn) [Example 121, N-((R)-1-cyclohexyl-2,2,2-trifluoroethyl)-2-(2,6-dioxopiperidin-3-yl)-4-fluoro-1-oxoisoindoline-5-carboxamide] |
| 100 to 500 | ** (a Y value (shown as**) of 20%<Y≤35%) | O=C1CCC(N2Cc3c(ccc(C(=O)N[C@H](c4ccc(Cl)cc4Cl)C(F)(F)F)c3F)C2=O)C(=O)N1 (stereo partly drawn) [Example 164, N-((R)-1-(2,4-dichlorophenyl)-2,2,2-trifluoroethyl)-2-(2,6-dioxopiperidin-3-yl)-4-fluoro-1-oxoisoindoline-5-carboxamide] |
